What was measured:
MjTET [1] = molecular target: T1, MjTET (Methanocaldococcus jannaschii, UniProt Q57975); assay: Effect of inhibitors on MjTET activity (Leu-pNA hydrolysis); assay type: biochemical; settings: 5 mM Leu-pNA, 0.1 mM CoCl2, pH 8.5, 85° C., 5 min
T1 construct: made in house; host or cells: Escherichia coli ArcticExpress (DE3)-RIL
T1 sequence (Q57975 1-350): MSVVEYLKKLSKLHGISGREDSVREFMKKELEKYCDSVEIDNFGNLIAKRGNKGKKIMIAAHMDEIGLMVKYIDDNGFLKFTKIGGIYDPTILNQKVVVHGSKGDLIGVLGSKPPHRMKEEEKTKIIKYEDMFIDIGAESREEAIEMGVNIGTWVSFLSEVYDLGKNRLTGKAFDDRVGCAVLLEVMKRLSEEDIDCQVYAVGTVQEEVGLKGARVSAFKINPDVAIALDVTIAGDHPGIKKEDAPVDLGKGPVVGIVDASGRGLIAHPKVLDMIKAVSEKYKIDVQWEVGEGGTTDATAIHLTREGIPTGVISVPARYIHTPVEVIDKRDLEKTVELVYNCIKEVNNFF
Experimental: The inhibitory effect of EDTA, Amastatine and Bestatine was tested on the MjTET enzymatic activity. 4 μg/mL of MjTET were incubated with each inhibitor separately in the presence of 5 mM Leu-pNA, 50 mM CHES, 150 mM KCl, 0.1 mM CoCl2, pH 8.5 at 85° C. for 5 min. Three replicates (with inhibitor) and two controls (without inhibitor) were assayed for each experimental point.

MjTET [2] = molecular target: T1, MjTET; assay: Effect of metal cations on MjTET activity; assay type: biochemical; settings: 5 mM Leu-pNA, pH 8.5, 75° C., 5 min
Experimental: The metal cations XCl2 were incubated at 0.1 mM concentration with 4 μg/mL of MjTET and 5 mM of Leu-pNA in 50 mM CHES, 150 mM KCl, pH 8.5 for 5 min at 75° C. To assess the effect of metal cations on MjTET activity, the enzymatic reaction was followed as described before.

Structure (SMILES): O=C(O)CN(CCN(CC(=O)O)CC(=O)O)CC(=O)O [EDTA]
- inhibition of MjTET enzymatic activity (MjTET [1]; 5 mM EDTA): completely inhibited

Structure (SMILES): [Cl-].[Cl-].[Zn+2] [ZnCl2]
- effect on MjTET LAP activity (MjTET [2]; 0.1 mM ZnCl2): significant inhibition

Structure (SMILES): CC(C)C[C@@H](N)[C@H](O)C(=O)N[C@H](C(=O)N[C@H](C(=O)N[C@@H](CC(=O)O)C(=O)O)C(C)C)C(C)C [amastatine]
- inhibition of MjTET LAP activity (MjTET [1]; 0.2 mM amastatine): completely inhibited

Structure (SMILES): CC(C)C[C@H](NC(=O)[C@@H](O)[C@H](N)Cc1ccccc1)C(=O)O [bestatine]
- inhibition of MjTET LAP activity (MjTET [1]; 1 mM bestatine): completely inhibited

Structure (SMILES): [Cl-].[Cl-].[Co+2] [cobalt ions]
- effect on MjTET LAP activity (MjTET [2]; 0.1 mM metal cation): increase of LAP activity

From US20210002623A1, “AMINOPEPTIDASE AND ITS USES” (Centre national de la recherche scientifique, priority 2017, published 2021)
